Test: Human HepG2 cell viability assay in 384 well format
Format: toxicity, cell-based
Set-up: dose 125 nL, time 70.5 hour; cytotoxicity at 70.5 h: concentration not given beside the values
Conditions: HepG2 cells, read-out: Inhibition

SMILES	cytotoxicity at 70.5 h
CC(=O)N1CC(c2ccnc(Nc3nccs3)n2)C1	-12.9%
CCCN(Cc1nc(-c2ccoc2)oc1C)CC1CCCO1 (stereo not given)	-6%
O=C1CO[C@@H]2CN(S(=O)(=O)c3ccccc3F)C[C@H]2N1	-3.37%
O=C(CSc1nnc2n1N=CN(c1ccccc1)C2)c1ccccc1	-7.5%
CC(C)CN(Cc1ccsc1)C(=O)CCCn1cncn1	-0.11%
O=C(Cn1ccc(=O)[nH]c1=O)Nc1ccccc1F	-4.99%
COC(C)(C)Cn1ccnc1-c1cccc(C(C)N(C)C)c1 (stereo not given)	-7.08%
CCN1CCCC12CCN(C(=O)c1nccn1C)CC2	-7.36%
COc1ccc(OC)c(C(O)CNC(=O)Nc2ccc(F)cc2F)c1 (stereo not given)	-6.18%
CCCOc1c(Cl)cc(C(=O)N2CCOC23CCN(C)CC3)cc1Cl	7.29%
CCc1ccc(C(=O)N2CCCC2c2c(C)nn(C)c2OC)o1 (stereo not given)	-6.13%
CN(C)S(=O)(=O)N1C[C@@H](Oc2ccccn2)[C@H]2OCCC[C@H]21	-7.76%
Cc1nc(CN2C(=O)CCC23CCN(Cc2cccn2C)CC3)cs1	-9.94%
CCOCC1CN(C(=O)c2cnoc2C)Cc2cn(CC3CC3)nc21 (stereo not given)	-8.9%
CC(C(=O)Nc1ccccn1)n1ccc(C(F)(F)F)n1 (stereo not given)	-15.3%
Cc1ccsc1C(=O)NCc1ccnc(C2CCCOC2)n1 (stereo not given)	13.6%
CC(C)Oc1ccc(CNC(=O)C2CCS(=O)(=O)C2)cn1 (stereo not given)	26.3%
O=C(CCc1cc2n(n1)CCCN(Cc1ccccc1F)C2)NC1CC1	0.504%
Cc1noc(C2CCCN(C(=O)c3cncc(Br)c3)C2)n1 (stereo not given)	-10.8%
CCCNC(=O)N1CCC(Oc2cc(C)ccc2F)(C(=O)O)CC1	10.3%
NC(=O)NCC(=O)N1CCCC(c2nccn2Cc2ccncc2)C1 (stereo not given)	-1.01%
COCCO[C@H]1CCN(C(=O)C2CCOCC2)[C@H]1Cc1ccncc1	29.3%
CC(C)NC(=O)N1CCC(n2ccc(C(F)(F)F)n2)CC1	1.15%

SMILES	cytotoxicity at 70.5 h
O=C(Cn1nc2ccccc2n1)N1CCCC(O)(CO)C1 (stereo not given)	6.64%
CNC(=O)[C@@H]1C[C@@H](N)CN1C1CCN(Cc2ccccn2)CC1	20.3%
Cc1cc(C(=O)NCCN2CCC(C)CC2)nn1C(C)(C)C	-15.3%
O=c1ccc(-n2ccnc2)nn1CCNS(=O)(=O)c1ccccc1Cl	-1.86%
Cc1cnn(CC2CN(CCS(=O)(=O)C(F)(F)F)CCO2)c1 (stereo not given)	23.8%
Cc1nn(C)cc1C(C)Nc1ncc(C(N)=O)cc1Cl (stereo not given)	-5.7%
Cc1cc(NC(=O)CCc2ccsc2)n(C)n1	-9.51%
Cc1nn(C)c(C)c1NC(=O)CN1CCOC(Cn2cccn2)C1 (stereo not given)	-1.52%
Cc1ccc(CN2CCc3[nH]nc(C(=O)N4CCN(C)CC4)c3C2)o1	23.5%
Cc1ccc(S(=O)(=O)NCc2cnn(C)c2)c(F)c1	-3.12%
O=C(NCC1CC1)c1nc2c(o1)CN(CC1CC1)C2	-6.5%
N#Cc1cccnc1NCCNC(=O)N1CCCC(N2CCCC2)C1 (stereo not given)	10.7%
CC(C)N(CCNc1nc(C2CCCC2)nc2c1cnn2C)C(C)C	-1.41%
CCOC(=O)N1CCC(OC)c2ccccc2N(C)C(=O)C1 (stereo not given)	1.4%
COc1ccc(C(=O)NCCNC(=O)c2scnc2Cl)cc1	-2.78%
COc1ccccc1CN1C(=O)O[C@@H]2CN(c3ccccn3)C[C@@H]21	22.7%
CN1CCOC(CNCc2nc(-c3cccnc3)no2)C1 (stereo not given)	-6.13%
O=C(c1ccc2occc2c1)N1CCC(C(=O)O)(n2cccn2)CC1	-4.27%
Cc1ccc(CC(=O)Nc2cc(C(C)C)n[nH]2)cn1	24.6%
N#Cc1cc2c(=O)n(CC(O)C(F)(F)F)ccc2[nH]c1=O (stereo not given)	3.74%
CCCn1ccnc1CN1CCN(C2CCOCC2)CC(C(N)=O)C1 (stereo not given)	-10.4%
Cc1cc(CN(C2CC2)C(C)C(C)C)no1 (stereo not given)	-2.85%
CN(Cc1nccn1CC(F)(F)F)C(=O)c1ccc(F)cc1F	-5.49%

SMILES	cytotoxicity at 70.5 h
CC(C)C(=O)NCC(=O)N1CCC2(CC1)c1ccccc1[C@@H](N)[C@@H]2O	13.2%
Cc1csc(CCCNC(C)CC(=O)Nc2cccc(C)c2C)n1 (stereo not given)	-4.67%
COc1cc(CNCC2CN(C3CC3)CCO2)cc(OC)c1 (stereo not given)	-2.94%
Cc1cccnc1NC(=O)CNC(=O)c1ccccc1Cl	-14.5%
CC(C)(C(=O)N1CCC(CS(N)(=O)=O)CC1)c1ccccc1F	1.82%
CC(=O)NC[C@@]1(COc2cnccn2)C[C@@H](O)[C@@H](O)C1	-3.14%
CN1CCCN(c2ccc(F)cc2CNC(=O)c2cccnc2)CC1	29.2%
CCC(NS(C)(=O)=O)c1ccccc1OC (stereo not given)	-1.94%
CNC(=O)c1cccnc1NCc1ccc(-n2cccn2)cc1	4%
c1cncc(COCc2nnc3n2CCN(CC2CC2)C3)c1	0.791%
Cc1c(C2CCCN(C(=O)c3cccnc3)C2)n2c(nc1=O)CCC2 (stereo not given)	-8.11%
Cc1noc(C)c1CN1C[C@@H](NS(=O)(=O)N(C)C)[C@H](C(C)C)C1	-8.39%
CC(C)(C)n1ncc2c1NC(=O)CC2c1cccs1 (stereo not given)	-6.21%
CC(C)CN1CCNC(=O)C12CCN(C(=O)c1ccccn1)CC2	9.35%
CCN(C(C)c1cccc(O)c1)S(=O)(=O)c1cccnc1 (stereo not given)	5.84%
COc1cc(C)nc(N2CCN(C(=O)CCc3ccsc3)CC2)n1	-4.26%
COc1c(CNCc2cccnc2N2CCCCC2)c(C)nn1C	2.37%
O=C(C1CCC2(CCN(CC3CCOCC3)CC2)O1)N1CCCCO1 (stereo not given)	-5.73%
Cc1cc(O)ccc1-c1cc(-c2cnn(C)c2C2CC2)c(C#N)c(N)n1	19.9%
CC(NC(=O)c1cccc(CN2CCN(C)CC2)c1)c1nccs1 (stereo not given)	1.61%
Cc1csc(CN2CC[C@H]3C[C@H](c4ccncn4)O[C@@H]3C2)n1	-2.15%
C=C(C)COc1cccc(CNC(CC)c2ccnn2C)c1 (stereo not given)	1.1%
Cn1ccnc1CN1CCCC(CCCc2ccccn2)(C(N)=O)C1 (stereo not given)	-4.1%

SMILES	cytotoxicity at 70.5 h
Cn1cc(-c2ncnc3c2CCN(CC2CCOC2)CC3)cn1 (stereo not given)	-7.49%
O=C(c1cccc(F)c1)N1C[C@@H](CN2CCCCC2)[C@@H](CO)C1	-7.48%
N#Cc1cccc(S(=O)(=O)NC(=O)c2csc(-c3ccco3)n2)c1	16.6%
Cc1nccn1CCN(C)C(=O)C1CCCN(C2CCOCC2)C1 (stereo not given)	-4.07%
c1csc(-c2nc(CN3CCOC(Cn4cccn4)C3)co2)c1 (stereo not given)	-8.17%
Cc1ncsc1C(=O)NC1CCN(CCC(=O)Nc2ccccc2)CC1	-1.32%
COc1ccc2c(c1)CN(Cc1nc3ccsc3c(=O)[nH]1)CC2	5.83%
Cn1cnc(CN2Cc3nccn3CC2c2ccccc2)c1 (stereo not given)	-7.94%
CN(C)c1cc(C(=O)Nc2cccnc2N2CCSCC2)ccn1	-9.49%
CCc1cnc2c(c1NCc1cccc(OC)c1)c(=O)n(C)c(=O)n2C	33.7%
CC(NC(=O)N(C)CCOc1ccccc1F)c1nncn1C (stereo not given)	-4.64%
CCc1cc(C(=O)N2CC[C@@H](c3ccc4c(c3)OCO4)[C@H](O)C2)[nH]n1	25.7%
COCCOc1ncccc1C(=O)N(C)c1ccc(OC)nc1	-8.37%
N#CC1(C(=O)N2CCOC(c3ccc(F)cc3)C2)CCCC1 (stereo not given)	-15.9%
O=C(CCOc1cccc(Cl)c1)N1CCN(c2cnccn2)CC1	22%
CC(C)c1nnc2n1CCN(C(=O)c1ccc(N(C)C)nn1)C2	2.93%
CS(=O)(=O)NCC1CCCN(c2ccc(C#N)cn2)C1 (stereo not given)	-8.07%
CCOCC(=O)N1CCC[C@]2(C[C@@H](OCc3ccncc3)CO2)C1	-7.17%
O=C(O)[C@@H]1CN(Cc2c[nH]c(CC3CCCC3)n2)C[C@H]1c1ccncc1	-4.68%
CN(C)CCCNC(=O)c1ccc(Cl)cc1Cl	-14.1%
CS(=O)(=O)c1ccc(OCCNCc2c(F)cccc2F)cc1	-3.48%
CCN(CC)C(=O)CN(C)Cc1nc2c(cnn2C)c(=O)[nH]1	-10.6%
Cc1nc(NC2CCCC2)cc(C2CCN2c2ncccn2)n1 (stereo not given)	-5.59%

SMILES	cytotoxicity at 70.5 h
Cc1noc2nc(C3CC3)c(Cl)c(C(=O)O)c12	-7.07%
Cn1cccc1C(=O)N1C[C@H]2CN(CC3CC3)C(=O)[C@H]2C1	6.81%
Cc1nc(C)n(C2CCCN(C(=O)CCn3cncn3)C2)n1 (stereo not given)	-0.0645%
COc1ccc2c(ccn2CCC(=O)NCCC(=O)O)c1	4.49%
O=C(CSC1CCc2ccccc2NC1=O)NCc1cccs1 (stereo not given)	-13.4%
COCCn1ccnc1C1CCCN(c2cc(OC)nc(N)n2)C1 (stereo not given)	31.1%
CNC(=O)c1nc(COc2c(C)occc2=O)no1	-14.3%
CNS(=O)(=O)CCCN1CCCC1c1noc(C2CC2)n1 (stereo not given)	-6.19%
CC(=O)N1CCN(CCCSCc2ccccc2)CC1	6.76%
CC1(C)CN(S(=O)(=O)N2CCCC2)CC1c1ccccc1 (stereo not given)	-6.08%
O=C(NCc1ccnc(OCC2CC2)c1)C1COc2ccccc2O1 (stereo not given)	0.151%
CCOC(=O)C1CCCCN1Cc1c[nH]nc1-c1cc2ccccc2o1 (stereo not given)	-7.32%
NC(=O)C1(Cc2ccccc2-c2ccccc2)CCCN(CC2CC2)C1 (stereo not given)	-14.5%
COCCN(CC1CC1)c1nc(CCN)nc2sc(C)c(C)c12	26.7%
CC(C)c1nnc(NC(=O)N2CCN(C)CC2c2ccccc2)s1 (stereo not given)	9.58%
c1csc(CN2CCC3(CC2)CCN(CC2CC2)CC3)n1	14.9%
CN1CCN(C(=O)CCCc2ccccn2)c2ccc(F)cc21	14.3%
CSCCCNC(=O)C(c1ccccc1C)N(C)C (stereo not given)	-6.07%
Cc1cc(CN2CCCC2)cc(Oc2nc(C)cnc2C)c1	-5.62%
COc1c(F)cc(-c2cccc3c2OC(CN)C3)cc1F (stereo not given)	0.0982%
O=C1NCCO[C@H]2CN(C(=O)CC3Cc4ccccc4C3)CC[C@@H]12	-9.87%
CCC(CNC(=O)OC)(OC)c1ccccc1 (stereo not given)	-0.855%
CC(C)c1nccn1C(C)C(=O)NC1CCOCC1 (stereo not given)	2.76%

— ChEMBL document CHEMBL3507680, “University of Dundee, Gates Library screen for HepG2 cell viability”
